Assay results taken from PubChem BioAssay AID1919010 (Molecular Pharmacology Branch, DTP, NCI, 2023).
“And” between values parts separate entries of the source, which are not always exact repeats. Identical values can stand only once. Values belong to the compound of their own block, whether it stands above or below them.

Tested on: Hs578T complex spheroid growth, percent test/control
Assay: Anticancer human tumor Hs578T cell line growth inhibition [AhR];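 further: luminescent viability signal as a proxy for spheroid growth; spheroids exposed to agents for one week after three days of growth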
Settings: for viability, T/C: stronger effect = lower value
Outline: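 Complex tumor spheroids co-cultured with HUVEC and human MSC stroma; AhR antagonists tested in combination with standard-of-care and investigational agents. Top concentration at or near clinical Cmax (else 10 microM), half-log dilutions; growth expressed as percent test/control.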

[1] = curve of first compound, second compound 0.1 µM
[2] = curve of first compound, second compound 0.316 µM
[3] = curve of first compound, second compound 1 µM
[4] = curve of first compound, second compound 3.16 µM
[5] = curve of first compound, second compound 10 µM
[6] = second compound 0.1 µM, first compound 0.0316 µM
[7] = second compound 0.1 µM, first compound 0.1 µM
[8] = second compound 0.1 µM, first compound 0.316 µM
[9] = second compound 0.1 µM, first compound 1 µM
[10] = second compound 0.1 µM, first compound 3.16 µM
[11] = second compound 0.1 µM, first compound 10 µM
[12] = second compound 0.316 µM, first compound 0.0316 µM
[13] = second compound 0.316 µM, first compound 0.1 µM
[14] = second compound 0.316 µM, first compound 0.316 µM
[15] = second compound 0.316 µM, first compound 1 µM
[16] = second compound 0.316 µM, first compound 3.16 µM
[17] = second compound 0.316 µM, first compound 10 µM
[18] = second compound 1 µM, first compound 0.0316 µM
[19] = second compound 1 µM, first compound 0.1 µM
[20] = second compound 1 µM, first compound 0.316 µM
[21] = second compound 1 µM, first compound 1 µM
[22] = second compound 1 µM, first compound 3.16 µM
[23] = second compound 1 µM, first compound 10 µM
[24] = second compound 3.16 µM, first compound 0.0316 µM
[25] = second compound 3.16 µM, first compound 0.1 µM
[26] = second compound 3.16 µM, first compound 0.316 µM
[27] = second compound 3.16 µM, first compound 1 µM
[28] = second compound 3.16 µM, first compound 3.16 µM
[29] = second compound 3.16 µM, first compound 10 µM
[30] = second compound 10 µM, first compound 0.0316 µM
[31] = second compound 10 µM, first compound 0.1 µM
[32] = second compound 10 µM, first compound 0.316 µM
[33] = second compound 10 µM, first compound 1 µM
[34] = second compound 10 µM, first compound 3.16 µM
[35] = second compound 10 µM, first compound 10 µM
[36] = second compound 0.1 µM, first compound 0.00949 µM
[37] = second compound 0.1 µM, first compound 0.03 µM
[38] = second compound 0.1 µM, first compound 0.0949 µM
[39] = second compound 0.1 µM, first compound 0.3 µM
[40] = second compound 0.316 µM, first compound 0.00949 µM
[41] = second compound 0.316 µM, first compound 0.03 µM
[42] = second compound 0.316 µM, first compound 0.0949 µM
[43] = second compound 0.316 µM, first compound 0.3 µM
[44] = second compound 1 µM, first compound 0.00949 µM
[45] = second compound 1 µM, first compound 0.03 µM
[46] = second compound 1 µM, first compound 0.0949 µM
[47] = second compound 1 µM, first compound 0.3 µM
[48] = second compound 3.16 µM, first compound 0.00949 µM
[49] = second compound 3.16 µM, first compound 0.03 µM
[50] = second compound 3.16 µM, first compound 0.0949 µM
[51] = second compound 3.16 µM, first compound 0.3 µM
[52] = second compound 10 µM, first compound 0.00949 µM
[53] = second compound 10 µM, first compound 0.03 µM
[54] = second compound 10 µM, first compound 0.0949 µM
[55] = second compound 10 µM, first compound 0.3 µM

- IC50 [1]: > 10000 nM
- IC50 [2]: > 10000 nM
- IC50 [3]: > 10000 nM
- IC50 [4]: > 10000 nM
- IC50 [5]: > 10000 nM
Structure (SMILES): CC1COCCN1c1cc(C2(S(C)(=N)=O)CC2)nc(-c2ccnc3[nH]ccc23)n1 (configuration not stated) + CC(CO)NC(=O)c1cc(-c2ccc(Cl)cc2)nn(-c2cnn(C)c2)c1=O
- viability, T/C [6]: 112%
- viability, T/C [7]: 117%
- viability, T/C [8]: 108%
- viability, T/C [9]: 107%
- viability, T/C [10]: 90.5%
- viability, T/C [11]: 60.3%
- viability, T/C [12]: 113%
- viability, T/C [13]: 122%
- viability, T/C [14]: 127%
- viability, T/C [15]: 100%
- viability, T/C [16]: 85.2%
- viability, T/C [17]: 61.3%
- viability, T/C [18]: 111%
- viability, T/C [19]: 134%
- viability, T/C [20]: 112%
- viability, T/C [21]: 111%
- viability, T/C [22]: 94.7%
- viability, T/C [23]: 66%
- viability, T/C [24]: 111%
- viability, T/C [25]: 114%
- viability, T/C [26]: 114%
- viability, T/C [27]: 111%
- viability, T/C [28]: 91.7%
- viability, T/C [29]: 59.5%
- viability, T/C [30]: 105%
- viability, T/C [31]: 121%
- viability, T/C [32]: 122%
- viability, T/C [33]: 116%
- viability, T/C [34]: 90.9%
- viability, T/C [35]: 58.8%

- IC50 (curve of compound): 448 nM and 364 nM and 406 nM
Structure (SMILES): COc1cccc2c1C(=O)c1c(O)c3c(c(O)c1C2=O)CC(O)(C(=O)CO)CC3OC1CC(N)C(O)C(C)O1 (configuration not stated)
- viability, T/C (compound 0.0316 µM): 94.7% and 85.6% and 84.9%
- viability, T/C (compound 0.1 µM): 76.8% and 79.4% and 75.8%
- viability, T/C (compound 0.316 µM): 64.8% and 54.3% and 58.2%
- viability, T/C (compound 1 µM): 22.9% and 18.6% and 23.3%
- viability, T/C (compound 3.16 µM): 3.73% and 2.18% and 2.52%
- viability, T/C (compound 10 µM): 3.36% and 2.24% and 3.77%

- IC50 [1]: > 300 nM
- IC50 [2]: > 300 nM
- IC50 [3]: > 300 nM
- IC50 [4]: > 300 nM
- IC50 [5]: < 0.949 nM
Structure (SMILES): Nc1ncn(C2CC(O)C(CO)S2)c(=O)n1 (configuration not stated) + Cc1cncc(-c2nc(NCCc3c[nH]c4ccccc34)c3ncn(C(C)C)c3n2)c1
- viability, T/C (second compound 0.1 µM, first compound 0.000949 µM): 110%
- viability, T/C (second compound 0.1 µM, first compound 0.003 µM): 119%
- viability, T/C [36]: 117%
- viability, T/C [37]: 108%
- viability, T/C [38]: 104%
- viability, T/C [39]: 92.9%
- viability, T/C (second compound 0.316 µM, first compound 0.000949 µM): 116%
- viability, T/C (second compound 0.316 µM, first compound 0.003 µM): 114%
- viability, T/C [40]: 115%
- viability, T/C [41]: 107%
- viability, T/C [42]: 108%
- viability, T/C [43]: 93.9%
- viability, T/C (second compound 1 µM, first compound 0.000949 µM): 92.2%
- viability, T/C (second compound 1 µM, first compound 0.003 µM): 95.3%
- viability, T/C [44]: 91%
- viability, T/C [45]: 82.4%
- viability, T/C [46]: 88.8%
- viability, T/C [47]: 86.4%
- viability, T/C (second compound 3.16 µM, first compound 0.000949 µM): 46.2%
- viability, T/C (second compound 3.16 µM, first compound 0.003 µM): 54.2%
- viability, T/C [48]: 55.5%
- viability, T/C [49]: 49.4%
- viability, T/C [50]: 47%
- viability, T/C [51]: 55%
- viability, T/C (second compound 10 µM, first compound 0.000949 µM): 14.1%
- viability, T/C (second compound 10 µM, first compound 0.003 µM): 7.61%
- viability, T/C [52]: 7.86%
- viability, T/C [53]: 8.27%
- viability, T/C [54]: 7.59%
- viability, T/C [55]: 7.47%

- IC50 [1]: 402 nM
- IC50 [2]: 352 nM
- IC50 [3]: 346 nM
- IC50 [4]: 148 nM
- IC50 [5]: < 9.49 nM
Structure (SMILES): O=C(C=Cn1cnc(-c2cc(C(F)(F)F)cc(C(F)(F)F)c2)n1)NNc1cnccn1 + Cc1cncc(-c2nc(NCCc3c[nH]c4ccccc34)c3ncn(C(C)C)c3n2)c1
- viability, T/C [36]: 113%
- viability, T/C [37]: 100%
- viability, T/C [38]: 93.7%
- viability, T/C [39]: 61.6%
- viability, T/C (second compound 0.1 µM, first compound 0.949 µM): 19.2%
- viability, T/C (second compound 0.1 µM, first compound 3 µM): 19.4%
- viability, T/C [40]: 110%
- viability, T/C [41]: 110%
- viability, T/C [42]: 96.4%
- viability, T/C [43]: 55%
- viability, T/C (second compound 0.316 µM, first compound 0.949 µM): 21.9%
- viability, T/C (second compound 0.316 µM, first compound 3 µM): 19.1%
- viability, T/C [44]: 101%
- viability, T/C [45]: 103%
- viability, T/C [46]: 93.2%
- viability, T/C [47]: 55.3%
- viability, T/C (second compound 1 µM, first compound 0.949 µM): 17.2%
- viability, T/C (second compound 1 µM, first compound 3 µM): 19.2%
- viability, T/C [48]: 84.6%
- viability, T/C [49]: 71.6%
- viability, T/C [50]: 59.4%
- viability, T/C [51]: 39%
- viability, T/C (second compound 3.16 µM, first compound 0.949 µM): 16%
- viability, T/C (second compound 3.16 µM, first compound 3 µM): 14.6%
- viability, T/C [52]: 6.63%
- viability, T/C [53]: 4.78%
- viability, T/C [54]: 2.83%
- viability, T/C [55]: 1.17%
- viability, T/C (second compound 10 µM, first compound 0.949 µM): 1.46%
- viability, T/C (second compound 10 µM, first compound 3 µM): 1.56%

More lines, now with the values behind:

Structure (SMILES): CC1(C)CCC(CN2CCN(c3ccc(C(=O)NS(=O)(=O)c4ccc(NCC5CCOCC5)c([N+](=O)[O-])c4)c(Oc4cnc5[nH]ccc5c4)c3)CC2)=C(c2ccc(Cl)cc2)C1
- viability, T/C (compound 0.0316 µM): 103% and 111% and 99.9%
- viability, T/C (compound 0.1 µM): 110% and 109% and 97.8%
- viability, T/C (compound 0.316 µM): 112% and 104% and 99.2%
- viability, T/C (compound 1 µM): 91% and 103% and 92.9%
- viability, T/C (compound 3.16 µM): 101% and 97.7% and 82.6%
- viability, T/C (compound 10 µM): 84% and 62.3% and 78.2%
- IC50 (curve of compound): > 10000 nM

Structure (SMILES): CC(CO)NC(=O)c1cc(-c2ccc(Cl)cc2)nn(-c2cnn(C)c2)c1=O (configuration not stated)
- viability, T/C (compound 0.316 µM): 116% [middle of 21 runs]
- viability, T/C (compound 1 µM): 109% [middle of 20 runs]
- IC50 (compound alone, run of 08/08/2022): > 10000 nM

Structure (SMILES): CC(C)c1c(-c2ccccc2)nc2c(C#N)c[nH]n2c1=O + CC(CO)NC(=O)c1cc(-c2ccc(Cl)cc2)nn(-c2cnn(C)c2)c1=O
- IC50 [1]: > 10000 nM
- IC50 [2]: > 10000 nM
- IC50 [3]: > 10000 nM
- IC50 [4]: > 10000 nM
- IC50 [5]: > 10000 nM
- viability, T/C [6]: 109%
- viability, T/C [7]: 116%
- viability, T/C [8]: 121%
- viability, T/C [9]: 113%
- viability, T/C [10]: 119%
- viability, T/C [11]: 111%
- viability, T/C [12]: 113%
- viability, T/C [13]: 129%
- viability, T/C [14]: 123%
- viability, T/C [15]: 111%
- viability, T/C [16]: 113%
- viability, T/C [17]: 115%
- viability, T/C [18]: 109%
- viability, T/C [19]: 124%
- viability, T/C [20]: 119%
- viability, T/C [21]: 113%
- viability, T/C [22]: 113%
- viability, T/C [23]: 116%
- viability, T/C [24]: 115%
- viability, T/C [25]: 124%
- viability, T/C [26]: 131%
- viability, T/C [27]: 113%
- viability, T/C [28]: 120%
- viability, T/C [29]: 120%
- viability, T/C [30]: 110%
- viability, T/C [31]: 113%
- viability, T/C [32]: 107%
- viability, T/C [33]: 110%
- viability, T/C [34]: 113%
- viability, T/C [35]: 110%
